# Bridge positions count the residues as written; N and C are the ends. Ends that are not written are not given here. COCH2 = acetyl group that carries the bridge
# Tested on: Recombinant Human FGFR1 alpha (IIIc) Fc Chimera Protein
# Test: Binding affinity of enzymatically synthesized cyclic peptide to FGFR by ELISA
# Conditions: luminescence signal at reaction concentration 10 nmol/L, SEQ ID NO: 39 standardized to 1, enzyme synthesis product
# Summary of the method: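 Plate-immobilized FGFR1α(IIIc)-Fc (5 ng/well) incubated with Myc-tagged cyclic peptide 3 h at room temperature; bound peptide detected with anti-Myc antibody (2 h) and chemiluminescence. Signal is FGFR minus no-FGFR wells, normalized to SEQ ID NO: 39 at 10 nmol/L and graded A–D.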
row,Evaluation result of binding affinity to FGFR,Substance
1,C (0.1 or more and less than 0.5),306 (HCSYERLQFHGHEAMFRVK(COCH2)V; thioether 2-19 (inferred)) [compound 306]
2,A (0.7 or more),307 (HCSYERLQFHGHEAPFMVK(COCH2)V; thioether 2-19 (inferred)) [compound 307]
3,C (0.1 or more and less than 0.5),308 (HCSYERLQFHGHEAPFRMK(COCH2)V; thioether 2-19 (inferred)) [compound 308]
4,A (0.7 or more),309 (HCSYERLQFHGHEAPFRVK(COCH2)M; thioether 2-19 (inferred)) [compound 309]
5,C (0.1 or more and less than 0.5),310 (YCTWERLIFLGHIAPFWVK(COCH2)R; thioether 2-19 (inferred)) [compound 310]
6,C (0.1 or more and less than 0.5),311 (RCTWERLIFLGHIAPFWVK(COCH2)R; thioether 2-19 (inferred)) [compound 311]
7,C (0.1 or more and less than 0.5),312 (HCVWERLIFLGHIAPFWVK(COCH2)R; thioether 2-19 (inferred)) [compound 312]
8,C (0.1 or more and less than 0.5),313 (HCQWERLIFLGHIAPFWVK(COCH2)R; thioether 2-19 (inferred)) [compound 313]
9,C (0.1 or more and less than 0.5),314 (HCTFERLIFLGHIAPFWVK(COCH2)R; thioether 2-19 (inferred)) [compound 314]
10,C (0.1 or more and less than 0.5),315 (HCTYERLIFLGHIAPFWVK(COCH2)R; thioether 2-19 (inferred)) [compound 315]
11,C (0.1 or more and less than 0.5),316 (HCTWERLVFLGHIAPFWVK(COCH2)R; thioether 2-19 (inferred)) [compound 316]
12,C (0.1 or more and less than 0.5),317 (HCTWERLRFLGHIAPFWVK(COCH2)R; thioether 2-19 (inferred)) [compound 317]
13,C (0.1 or more and less than 0.5),318 (HCTWERLIFRGHIAPFWVK(COCH2)R; thioether 2-19 (inferred)) [compound 318]
14,C (0.1 or more and less than 0.5),319 (HCTWERLIFQGHIAPFWVK(COCH2)R; thioether 2-19 (inferred)) [compound 319]
15,C (0.1 or more and less than 0.5),320 (HCTWERLIFLGHLAPFWVK(COCH2)R; thioether 2-19 (inferred)) [compound 320]
16,C (0.1 or more and less than 0.5),321 (HCTWERLIFLGHVAPFWVK(COCH2)R; thioether 2-19 (inferred)) [compound 321]
17,C (0.1 or more and less than 0.5),322 (HCTWERLIFLGHIAPFLVK(COCH2)R; thioether 2-19 (inferred)) [compound 322]
18,A (0.7 or more),323 (HCTWERLIFLGHIAPFHVK(COCH2)R; thioether 2-19 (inferred)) [compound 323]
19,B (0.5 or more and less than 0.7),324 (HCTWERLIFLGHIAPFWVK(COCH2)V; thioether 2-19 (inferred)) [compound 324]
20,B (0.5 or more and less than 0.7),325 (HCTWERLIFLGHIAPFWVK(COCH2)S; thioether 2-19 (inferred)) [compound 325]

row,Evaluation result of binding affinity to FGFR,Substance
1,A (0.7 or more),326 (HCSYERLQFHGHIAPFWVK(COCH2)V; thioether 2-19 (inferred)) [compound 326]
2,A (0.7 or more),327 (HCSYERLIFHGHEAPFWVK(COCH2)V; thioether 2-19 (inferred)) [compound 327]
3,A (0.7 or more),328 (HCSYERLIFHGHIAPFWVK(COCH2)V; thioether 2-19 (inferred)) [compound 328]
4,A (0.7 or more),329 (HCSYERLRFHGHIAPFWVK(COCH2)V; thioether 2-19 (inferred)) [compound 329]
5,A (0.7 or more),330 (HCSYERLVFHGHIAPFWVK(COCH2)V; thioether 2-19 (inferred)) [compound 330]
6,A (0.7 or more),331 (HCSYERLIFHGHLAPFWVK(COCH2)V; thioether 2-19 (inferred)) [compound 331]
7,A (0.7 or more),332 (HCTYERLIFHGHIAPFWVK(COCH2)V; thioether 2-19 (inferred)) [compound 332]
8,A (0.7 or more),333 (HCVYERLIFHGHIAPFWVK(COCH2)V; thioether 2-19 (inferred)) [compound 333]
9,B (0.5 or more and less than 0.7),334 (HCSYERLIFLGHIAPFWVK(COCH2)V; thioether 2-19 (inferred)) [compound 334]
10,A (0.7 or more),335 (HCSYERLIFRGHIAPFWVK(COCH2)V; thioether 2-19 (inferred)) [compound 335]
11,B (0.5 or more and less than 0.7),336 (HCTYERLIFLGHIAPFWVK(COCH2)V; thioether 2-19 (inferred)) [compound 336]
12,C (0.1 or more and less than 0.5),337 (ACLPFLRIIIAGHWAPFLAK(COCH2)Q; thioether 2-20 (inferred)) [compound 337]
13,C (0.1 or more and less than 0.5),338 (PCLAPYGWVILDWGLVSNWK(COCH2)Y; thioether 2-20 (inferred)) [compound 338]
14,C (0.1 or more and less than 0.5),339 (YCITQHPWAPFWVVNPWDNK(COCH2)L; thioether 2-20 (inferred)) [compound 339]
15,C (0.1 or more and less than 0.5),340 (HCLVKRLVSAWGELAPFWVK(COCH2)V; thioether 2-20) [compound 340]
16,C (0.1 or more and less than 0.5),341 (ACLPFLRIIIAGHWAPFLAK(COCH2)H; thioether 2-20) [compound 341]
17,C (0.1 or more and less than 0.5),342 (NCIPFWWQQHWWQYPVRVVK(COCH2)T; thioether 2-20) [compound 342]
18,C (0.1 or more and less than 0.5),343 (QCWQQAYAYFPHVLAPFLVK(COCH2)S; thioether 2-20) [compound 343]
19,C (0.1 or more and less than 0.5),344 (RCQPFVQLVFRSLLAPFLVK(COCH2)H; thioether 2-20) [compound 344]
20,C (0.1 or more and less than 0.5),345 (QCYLPFWFYQKARLLFHYIK(COCH2)S; thioether 2-20) [compound 345]

row,Evaluation result of binding affinity to FGFR,Substance
1,C (0.1 or more and less than 0.5),346 (ACWLRHIYQGHQAPFLIWSTK(COCH2)S; thioether 2-21) [compound 346]
2,B (0.5 or more and less than 0.7),347 (PCVQQISPHPWGAPFWVVTSK(COCH2)F; thioether 2-21) [compound 347]
3,C (0.1 or more and less than 0.5),348 (PCTGWTPLYFFGKRAPFLVNK(COCH2)A; thioether 2-21) [compound 348]
4,C (0.1 or more and less than 0.5),349 (HCLEQLVYGGDTAPFWIVVFK(COCH2)D; thioether 2-21) [compound 349]
5,C (0.1 or more and less than 0.5),350 (LCSITRIQLFGYHAPFWHVVK(COCH2)S; thioether 2-21) [compound 350]
6,C (0.1 or more and less than 0.5),351 (WCWQAPFNIVVNRKVSVLIVK(COCH2)G; thioether 2-21) [compound 351]
7,B (0.5 or more and less than 0.7),352 (ICINRLSQGTHFAPFWLVEYK(COCH2)N; thioether 2-21) [compound 352]
8,B (0.5 or more and less than 0.7),353 (PCVQQISPHPWGAPFWVVTSK(COCH2)Y; thioether 2-21) [compound 353]
9,C (0.1 or more and less than 0.5),355 (RCYFSRQGFWPFTYKLPFWVK(COCH2)H; thioether 2-21) [compound 355]
10,B (0.5 or more and less than 0.7),356 (ACWLRHIYQGHKAPFLIWSTK(COCH2)S; thioether 2-21) [compound 356]
11,C (0.1 or more and less than 0.5),357 (ACWLRHIYQGHQAPFLIWSTK(COCH2)Y; thioether 2-21) [compound 357]
12,C (0.1 or more and less than 0.5),358 (NCWVQWFLSGHVVPFLVSLK(COCH2)S; thioether 2-20) [compound 358]
13,C (0.1 or more and less than 0.5),359 (WCPWGDIHVVPFHK(COCH2)V; thioether 2-14) [compound 359]
14,B (0.5 or more and less than 0.7),360 (DCWGWHREFVPFIK(COCH2)I; thioether 2-14) [compound 360]
15,C (0.1 or more and less than 0.5),361 (QCPWSTTQQVPFIK(COCH2)V; thioether 2-14) [compound 361]
16,C (0.1 or more and less than 0.5),362 (WCHYAPFWVLNEGQLK(COCH2)V; thioether 2-16) [compound 362]
17,C (0.1 or more and less than 0.5),363 (TCSILKHPWGAPFLVK(COCH2)T; thioether 2-16) [compound 363]
18,C (0.1 or more and less than 0.5),364 (WCQLRFQGHLAPFIIK(COCH2)S; thioether 2-16) [compound 364]

# From US20260008818A1, “CYCLIC PEPTIDE OR SALT THEREOF, AND USES THEREOF” (FUJIFILM Corporation, priority 2023, published 2026)
